According to ChEMBL document CHEMBL1201862, “PubChem BioAssay data set” (2004):
Calls of active or inactive are those of the source.

Columns and labels:
[1] = target: Nuclear receptor subfamily 5 group A member 2 (Homo sapiens, UniProt O00482); type: functional, cell-based;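 further: HEK293T cells transfected with LRH-1 and a StAR promoter luciferase reporter; potency for inhibitors that lower LRH-1 driven reporter light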
[2] = StAR promoter reporter inhibition counter-screen, dose response, counter-screen for LRH-1 inverse agonist project, cell-based, luminescence, luciferase reporter (AID 651969); type: functional
Steroidogenic factor 1 = Steroidogenic factor 1 (Homo sapiens, UniProt Q13285); assay: Counterscreen for inverse agonists of the liver receptor homolog-1 (LRH-1; NR5A2): Luminescence-based cell-based high throughput dose response assay to identify inverse agonists of the Steroidogenic Factor 1 Nuclear Receptor (SF1; NR5A1).; type: functional
cells [3] = type: functional, cell-based
[4] = target: T1, Heat shock factor protein 1 (Mus musculus, UniProt P38532); assay: HSF1 potentiators in luciferase reporter cells, confirmation, cell-based, NIH3T3, luminescence, dose retest (AID 435004); type: functional;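 further: stress induced by proteasome inhibitor MG132 added 30 min after compound; luciferase reporter driven by HSF1 response element in NIH3T3 cells; actives raise luminescence as potentiators of the MG132 stress response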
T1 sequence (P38532 whole entry): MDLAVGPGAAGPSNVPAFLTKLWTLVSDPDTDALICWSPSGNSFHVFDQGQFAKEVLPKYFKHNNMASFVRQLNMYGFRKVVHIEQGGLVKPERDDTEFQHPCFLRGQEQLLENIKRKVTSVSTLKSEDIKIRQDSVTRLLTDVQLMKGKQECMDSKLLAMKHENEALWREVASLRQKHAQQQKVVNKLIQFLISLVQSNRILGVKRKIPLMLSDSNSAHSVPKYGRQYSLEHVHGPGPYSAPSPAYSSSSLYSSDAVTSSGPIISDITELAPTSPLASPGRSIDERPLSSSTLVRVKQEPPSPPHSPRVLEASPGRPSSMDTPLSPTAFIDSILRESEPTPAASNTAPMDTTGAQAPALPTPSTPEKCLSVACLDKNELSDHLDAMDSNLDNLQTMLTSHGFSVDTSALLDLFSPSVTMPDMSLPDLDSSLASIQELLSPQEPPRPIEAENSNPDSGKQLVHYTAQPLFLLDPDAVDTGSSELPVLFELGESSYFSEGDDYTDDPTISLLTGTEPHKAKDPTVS

cells [5] = type: functional, cell-based; remark: listed apart in the source
INS1 = assay: beta cell apoptosis inhibitors, cytokine rescue, dose response, luminescence, retest (AID 449756); type: functional, cell-based; settings: Rattus norvegicus;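 further: cell death triggered by IL-1 beta plus TNF-alpha plus IFN-gamma mixture; protective hits raise ATP signal compared with cytokine alone wells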
[6] = cytotoxicity toward NIH3T3 fibroblasts, dose response, counter-screen, cell-based, ATP luminescence, mouse fibroblasts (AID 2010); type: functional;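 further: cells exposed to compound for about 90 hours before reading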
[7] = target: T2, DNA repair protein RAD52 homolog (Homo sapiens, UniProt P43351); type: functional, biochemical
T2 sequence (P43351 whole entry): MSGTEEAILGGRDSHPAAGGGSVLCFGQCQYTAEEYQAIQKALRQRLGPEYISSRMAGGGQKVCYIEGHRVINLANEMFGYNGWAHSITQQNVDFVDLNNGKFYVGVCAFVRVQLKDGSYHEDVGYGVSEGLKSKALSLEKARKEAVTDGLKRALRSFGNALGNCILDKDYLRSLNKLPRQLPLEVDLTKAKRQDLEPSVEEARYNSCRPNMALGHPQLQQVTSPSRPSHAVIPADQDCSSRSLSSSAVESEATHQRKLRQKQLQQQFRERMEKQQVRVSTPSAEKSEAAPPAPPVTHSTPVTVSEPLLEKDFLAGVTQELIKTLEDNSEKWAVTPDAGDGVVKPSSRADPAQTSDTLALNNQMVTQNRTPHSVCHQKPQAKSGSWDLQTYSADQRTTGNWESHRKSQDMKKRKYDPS

[8] = control 3'UTR Renilla luciferase suppression, dose response, counter-screen for Shn3 inhibitor project, cell-based, Clone20-Shn3RL, cherry-picked (AID 624133); type: functional
CAAX prenyl protease 2 [9] = target: T3, CAAX prenyl protease 2 (Homo sapiens, UniProt Q9Y256); assay: human Rce1 protease inhibitors, dose response, biochemical, yeast membranes, quenched-peptide fluorescence, cherry-pick (AID 588849)
T3 sequence (Q9Y256 whole entry): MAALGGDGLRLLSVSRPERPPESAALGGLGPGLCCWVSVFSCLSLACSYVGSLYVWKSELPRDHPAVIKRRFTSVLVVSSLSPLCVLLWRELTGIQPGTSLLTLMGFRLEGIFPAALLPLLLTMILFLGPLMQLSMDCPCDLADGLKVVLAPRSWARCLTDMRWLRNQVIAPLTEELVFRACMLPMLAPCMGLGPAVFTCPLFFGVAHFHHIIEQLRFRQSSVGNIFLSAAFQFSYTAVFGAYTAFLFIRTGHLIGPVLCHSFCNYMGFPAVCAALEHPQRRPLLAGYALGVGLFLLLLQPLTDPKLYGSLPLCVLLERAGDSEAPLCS

[10] = HepG2 cell cytotoxicity, dose response, cytotoxicity control for Shn3 inhibitor project, CellTiter-Glo, cherry-picked (AID 624134); type: functional, cell-based
CAAX prenyl protease 2 [11] = target: T4, CAAX prenyl protease 2 (Saccharomyces cerevisiae S288c, UniProt Q03530); type: biochemical
T4 sequence (Q03530 whole entry): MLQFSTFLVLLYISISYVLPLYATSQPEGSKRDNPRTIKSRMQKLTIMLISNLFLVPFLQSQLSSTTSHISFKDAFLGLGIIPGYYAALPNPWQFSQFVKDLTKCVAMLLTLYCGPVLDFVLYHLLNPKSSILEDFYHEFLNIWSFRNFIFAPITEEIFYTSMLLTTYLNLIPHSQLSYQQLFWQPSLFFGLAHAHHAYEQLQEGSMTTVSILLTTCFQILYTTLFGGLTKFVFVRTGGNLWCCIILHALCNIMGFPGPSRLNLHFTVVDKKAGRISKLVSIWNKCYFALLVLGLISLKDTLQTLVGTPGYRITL

[12] = inhibitors of intracellular T. cruzi replication, confirmation, NIH3T3 host cells, beta-gal luminescence (AID 2044); type: functional, cell-based;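 further: intracellular parasites grown in NIH/3T3 mouse fibroblasts as host cells; luminescent beta-galactosidase reporter signal from transgenic T. cruzi replicating inside host cells; inhibitors lower the luminescence signal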
Paired box protein Pax-8 = Paired box protein Pax-8 (Homo sapiens, UniProt Q06710); assay: inhibitors of PAX8-driven TPO luciferase reporter, dose response, RMG-I cells, cherry-pick (AID 687027); type: functional, cell-based;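 further: luciferase reporter driven by Pax8 target thyroperoxidase promoter measured by SteadyGlo luminescence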
[13] = Shn3 3'UTR reporter inhibitors, dose response, cell-based, Clone20 osteoblasts, firefly luciferase, cherry-picked (AID 624132); type: functional;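 further: firefly luciferase luminescence from reporter carrying the Shn3 3'UTR in osteoblasts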
[14] = HeLa cell cytotoxicity, dose response, cytotoxicity control for MgcRacGAP inhibitor project (AID 624300); type: functional
[15] = target: T5, Rac GTPase-activating protein 1 (Homo sapiens, UniProt Q9H0H5); assay: MgcRacGAP GTPase-activating activity inhibitors, confirmation, biochemical, ADP Hunter fluorescence, primary and confirmatory (AID 624330); type: functional
T5 sequence (Q9H0H5 whole entry): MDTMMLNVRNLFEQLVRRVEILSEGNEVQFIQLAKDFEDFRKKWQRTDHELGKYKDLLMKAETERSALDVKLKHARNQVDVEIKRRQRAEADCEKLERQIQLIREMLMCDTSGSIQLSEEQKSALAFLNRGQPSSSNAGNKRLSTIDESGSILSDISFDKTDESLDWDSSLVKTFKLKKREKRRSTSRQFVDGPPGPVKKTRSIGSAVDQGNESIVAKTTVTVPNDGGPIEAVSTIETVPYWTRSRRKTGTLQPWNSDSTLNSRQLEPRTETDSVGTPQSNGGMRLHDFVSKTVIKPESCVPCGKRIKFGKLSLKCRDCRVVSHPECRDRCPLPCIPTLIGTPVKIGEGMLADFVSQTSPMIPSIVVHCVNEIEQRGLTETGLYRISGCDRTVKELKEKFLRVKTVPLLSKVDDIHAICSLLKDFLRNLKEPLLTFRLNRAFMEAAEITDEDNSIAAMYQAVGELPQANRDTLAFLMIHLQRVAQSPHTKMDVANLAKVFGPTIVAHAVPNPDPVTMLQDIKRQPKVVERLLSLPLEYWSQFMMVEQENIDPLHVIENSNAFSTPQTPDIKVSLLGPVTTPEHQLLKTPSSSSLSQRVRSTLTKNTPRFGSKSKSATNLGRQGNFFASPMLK

[16] = A2780 ovarian cancer cell cytotoxicity, dose response, cytotoxicity control, plate reader, dry powder samples (AID 743046); type: functional, cell-based
[17] = miR-122 activators in hepatoma reporter cells, dose response, cell-based, Huh7 psiCHECK-miR122, Renilla luciferase, cherry-picked (AID 651956); type: functional;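 further: huh7 hepatoma cells stably carrying a psiCHECK-2 miR-122 sensor plasmid; renilla luciferase signal reporting endogenous miR-122 activity after 48 h compound exposure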
[18] = target: T6, DNA repair and recombination protein RAD54-like (Homo sapiens, UniProt Q92698); assay: inhibitors of human RAD54 branch migration, confirmation, biochemical, fluorescence, cherry-picked samples, dose series (AID 651657); type: functional
T6 sequence (Q92698 whole entry): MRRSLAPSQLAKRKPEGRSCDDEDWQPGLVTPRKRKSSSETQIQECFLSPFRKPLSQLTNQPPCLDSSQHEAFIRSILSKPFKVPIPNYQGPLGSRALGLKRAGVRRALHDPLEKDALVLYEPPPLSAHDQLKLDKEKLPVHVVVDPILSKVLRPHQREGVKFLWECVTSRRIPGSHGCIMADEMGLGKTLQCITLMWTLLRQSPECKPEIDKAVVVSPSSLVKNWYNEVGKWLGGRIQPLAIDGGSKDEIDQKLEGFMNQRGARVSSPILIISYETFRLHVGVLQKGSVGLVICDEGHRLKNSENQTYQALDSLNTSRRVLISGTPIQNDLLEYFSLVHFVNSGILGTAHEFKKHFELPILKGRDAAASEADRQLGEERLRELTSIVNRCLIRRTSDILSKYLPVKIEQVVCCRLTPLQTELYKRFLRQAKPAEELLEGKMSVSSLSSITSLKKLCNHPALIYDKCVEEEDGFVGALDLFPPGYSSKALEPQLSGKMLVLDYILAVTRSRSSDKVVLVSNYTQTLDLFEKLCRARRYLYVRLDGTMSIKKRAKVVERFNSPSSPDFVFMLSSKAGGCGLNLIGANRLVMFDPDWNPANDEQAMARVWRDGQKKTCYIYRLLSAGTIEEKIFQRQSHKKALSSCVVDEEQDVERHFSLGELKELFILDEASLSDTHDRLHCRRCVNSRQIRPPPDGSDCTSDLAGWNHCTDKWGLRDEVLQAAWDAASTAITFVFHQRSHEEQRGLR

[19] = Luminescence Cell-Based Dose Response HTS to Identify Inhibitors of 5'UTR Stem-Loop Driven Prion Protein mRNA Translation in H4 Neuroglioblastoma Cells. [Related pubchem assays: 1827 (Project Summary), 1813 (Primary HTS)]; type: functional
[20] = inhibitors of SNCA 5'UTR-driven reporter translation, confirmation, H4 neuroglioma cells, luminescence (AID 1988); type: functional, cell-based
[21] = HEK293T cytotoxicity, dose response, cytotoxicity control for miR-122 modulator project, cell-based, inhibitor set, cherry-pick, set 2 (AID 720697); type: functional
[22] = inhibitors of firefly luciferase expression or activity, dose response, H4 neuroglioma cells, luminescence (AID 1990); type: functional, cell-based

Nuclear receptor subfamily 5 group A member 2, sequence (O00482 whole entry): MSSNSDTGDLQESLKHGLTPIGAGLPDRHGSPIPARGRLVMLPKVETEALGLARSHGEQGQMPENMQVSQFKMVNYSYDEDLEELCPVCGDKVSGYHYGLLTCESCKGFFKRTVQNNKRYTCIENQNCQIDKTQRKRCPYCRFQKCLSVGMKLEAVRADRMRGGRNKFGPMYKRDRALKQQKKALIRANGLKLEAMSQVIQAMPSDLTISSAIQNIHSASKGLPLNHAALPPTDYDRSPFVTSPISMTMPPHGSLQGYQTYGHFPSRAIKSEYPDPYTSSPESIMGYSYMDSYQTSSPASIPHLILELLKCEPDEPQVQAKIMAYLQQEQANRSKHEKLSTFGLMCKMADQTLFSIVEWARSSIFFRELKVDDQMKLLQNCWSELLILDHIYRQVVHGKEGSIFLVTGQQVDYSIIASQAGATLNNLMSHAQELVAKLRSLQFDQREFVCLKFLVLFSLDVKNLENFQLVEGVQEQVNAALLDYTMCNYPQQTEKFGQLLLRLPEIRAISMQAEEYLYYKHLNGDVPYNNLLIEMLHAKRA
Steroidogenic factor 1, sequence (Q13285 whole entry): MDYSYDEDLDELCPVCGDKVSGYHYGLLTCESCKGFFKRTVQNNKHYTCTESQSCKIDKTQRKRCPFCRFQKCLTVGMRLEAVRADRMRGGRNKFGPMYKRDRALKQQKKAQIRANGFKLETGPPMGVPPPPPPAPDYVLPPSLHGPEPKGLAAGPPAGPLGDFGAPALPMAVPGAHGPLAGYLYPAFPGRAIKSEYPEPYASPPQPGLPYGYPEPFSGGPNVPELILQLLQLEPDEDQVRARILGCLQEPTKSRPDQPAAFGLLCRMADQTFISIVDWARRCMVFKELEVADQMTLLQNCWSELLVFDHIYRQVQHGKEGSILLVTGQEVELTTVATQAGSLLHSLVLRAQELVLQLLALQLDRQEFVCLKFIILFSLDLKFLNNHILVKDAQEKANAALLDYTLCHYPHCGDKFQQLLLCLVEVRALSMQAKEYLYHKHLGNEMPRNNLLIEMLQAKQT
Paired box protein Pax-8, sequence (Q06710 whole entry): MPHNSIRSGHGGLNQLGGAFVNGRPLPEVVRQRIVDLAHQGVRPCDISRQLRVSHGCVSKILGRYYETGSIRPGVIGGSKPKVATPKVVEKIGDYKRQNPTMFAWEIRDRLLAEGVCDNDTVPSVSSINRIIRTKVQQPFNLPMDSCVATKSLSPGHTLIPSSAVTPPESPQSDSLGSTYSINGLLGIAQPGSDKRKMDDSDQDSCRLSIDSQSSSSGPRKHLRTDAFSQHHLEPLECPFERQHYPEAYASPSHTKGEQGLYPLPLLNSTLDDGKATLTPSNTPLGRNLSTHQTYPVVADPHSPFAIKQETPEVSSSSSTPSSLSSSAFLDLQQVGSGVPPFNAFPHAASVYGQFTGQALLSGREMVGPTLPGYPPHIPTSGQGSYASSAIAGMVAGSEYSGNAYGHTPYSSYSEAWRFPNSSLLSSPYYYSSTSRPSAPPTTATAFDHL

SMILES: O=C1CCCN2N=C(SCC(=O)Nc3ccc(Br)cc3)SC2=N1
- IC50 [1]: 71.6 µM (inactive)
- IC50 [2]: 35.9 µM (inactive)
- IC50 (Steroidogenic factor 1): 12 µM (inactive)
- EC50 (cells [3]): > 350 µM (not active)
- EC50 [4]: > 260 µM (inactive)
- EC50 (cells [5]): > 350 µM (not active)

SMILES: C[n+]1c2n(c3ccccc31)N=C(c1cc(C(C)(C)C)c(O)c(C(C)(C)C)c1)CS2
- AC50 (INS1): 0.452 µM (active)
- EC50 [6]: > 60 µM (not active)
- AC50 [7]: 13.4 µM (active)
- AC50 [8]: 7.16 µM (active)
- AC50 (CAAX prenyl protease 2 [9]): > 100 µM (inactive)
- AC50 [10]: 13 µM (active)
- AC50 (CAAX prenyl protease 2 [11]): 9.21 µM (active)
- EC50 [12]: 0.496 µM (active)
- AC50 (Paired box protein Pax-8): 0.906 µM (active)
- AC50 [13]: 5.92 µM (active)

SMILES: CCN1CCN(c2nc(Nc3ccc(NC(C)=O)cc3)nc(Nc3ccc(NC(C)=O)cc3)n2)CC1
- AC50 [7]: 6.27 µM (active)

SMILES: CCOc1ccc(NC(=O)CSc2nccn(-c3ccc4c(c3)OCCO4)c2=O)cc1
- IC50 [1]: 2.49 µM (active)
- IC50 [2]: 35.9 µM (inactive)
- IC50 (Steroidogenic factor 1): 2.46 µM (active)

SMILES: CC(C)N(CCNCC(O)COc1ccc(C(C)(C)c2ccccc2)cc1)C(C)C (configuration not stated)
- CC50 [14]: 91.8 µM (active)
- IC50 [15]: 204 µM (active)

SMILES: Cc1cc(-c2ccccc2)nc(N/N=C/c2ccc(O)cc2)n1
- CC50 [14]: 87 µM (active)
- IC50 [15]: 18.2 µM (active)

SMILES: Cc1noc(C)c1S(=O)(=O)Nc1ccc2c(c1)C(=O)N([C@@H](C)CO)C[C@H](C)[C@H](CN(C)C(=O)Nc1ccc(C(F)(F)F)cc1)OCCCC[C@H](C)O2
- AC50 (Paired box protein Pax-8): 14.2 µM (active)
- AC50 [16]: 4.83 µM (active)

SMILES: C[C@@H]1CN([C@H](C)CO)C(=O)c2cc(-c3cncnc3)cnc2O[C@H]1CN(C)Cc1ccc(Oc2ccccc2)cc1
- AC50 [17]: 25.7 µM (active)

SMILES: COc1ccc(OCC(O)CN2CCC(CN3C(=O)c4cccc5cccc(c45)C3=O)CC2)cc1 (configuration not stated)
- AC50 [7]: 8.15 µM (active)

SMILES: OCCN1CCN(c2ncnc3sc(-c4ccccc4)cc23)CC1
- AC50 [18]: 24.8 µM (active)
- EC50 [6]: > 60 µM (not active)
- EC50 [12]: 0.721 µM (active)

SMILES: CCN(CC)CC(=O)Nc1cc(N(C)C)nc2ccccc12
- AC50 [18]: 26.9 µM (active)

SMILES: CCn1c(=O)n(CC)c2cc(N3CCCC3)c(NC(=O)c3cccc(Cl)c3)cc21
- CC50 [14]: 100 µM (active)

SMILES: Cn1cc(Cl)c(C(=O)OCC(=O)Nc2ccc(S(N)(=O)=O)cc2)n1
- IC50 [1]: 0.45 µM (active)
- IC50 [2]: 35.9 µM (inactive)
- IC50 (Steroidogenic factor 1): 1.11 µM (active)

SMILES: Cc1ccc2c(c1)c1nc3ccccc3nc1n2CCN1CCOCC1
- AC50 [18]: 16.6 µM (active)

SMILES: COc1ccc(C(O)(CC(C)C)C(CN2CCOCC2)c2ccccc2)cc1 (configuration not stated)
- EC50 [19]: > 120 µM (not active)
- EC50 [20]: 10.2 µM (active)
- AC50 [21]: 4.58 µM (active)
- EC50 [22]: 10.6 µM (active)
- AC50 [17]: 49 µM (active)
